Target: T1, FtsZ (Bacillus subtilis, UniProt P17865)
T1 sequence (P17865 1-382): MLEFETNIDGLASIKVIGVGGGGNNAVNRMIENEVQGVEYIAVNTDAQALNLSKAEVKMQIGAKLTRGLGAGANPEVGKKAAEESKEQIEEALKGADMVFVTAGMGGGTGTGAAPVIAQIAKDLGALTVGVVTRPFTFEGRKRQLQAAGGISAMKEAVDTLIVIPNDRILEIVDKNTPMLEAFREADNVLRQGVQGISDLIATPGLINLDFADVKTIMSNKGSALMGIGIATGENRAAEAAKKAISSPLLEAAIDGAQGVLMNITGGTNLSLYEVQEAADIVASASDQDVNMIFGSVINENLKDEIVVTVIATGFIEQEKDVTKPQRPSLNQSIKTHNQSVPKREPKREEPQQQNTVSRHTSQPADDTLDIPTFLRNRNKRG
Assay: malachite green/ammonium molybdate GTPase assay
Type: biochemical

## Nc1nc2c(ncn2[C@@H]2O[C@H](COP(=O)(O)OP(=O)(O)OP(=O)(O)O)[C@@H](O)[C@H]2O)c(=O)[nH]1 [GTP]
  malachite green/ammonium molybdate GTPase assay (1 mM GTP): 1.5 ± 0.6 min^–1

— paper PMC4020581 (Biochemistry, 2014)
